Article PMC7721897, “Metabolism and pharmacokinetics of a novel polyphenol fatty acid ester phloridzin docosahexaenoate in Balb/c female mice” (Scientific Reports, 2020)
Like-named read-outs stand apart in the source and are kept apart here.

Columns and labels:
[1] = Serum pharmacokinetics after intraperitoneal injection; type: in vivo, Balb/c female mice; conditions: 100 mg/kg intraperitoneal; for Cmax: read-out: Maximum serum concentration (Cmax)
Protocol: Figure 4 Intraperitoneal administration of PZ-DHA results in absorption into the systemic circulation of Balb/c female mice. PZ-DHA (100 mg/kg) was administered by intraperitoneal injection to Balb/c female mice. Blood collection was performed and serum was separated. PZ-DHA was identified and quantified using a calibration curve (R^2 = 0.99) generated using a standard series of PZ-DHA concentrations made in mouse serum. PZ-DHA concentration was plotted against time. The elimination rate of PZ-DHA was determined using a semi-log curve of PZ-DHA concentration vs. time curve.
Pharmacokinetic parameters and in vivo generation of PZ-DHA metabolites were studied using Balb/c female mice. Mice were randomly divided into six groups (n = 4/group) and PZ-DHA (100 mg/kg) was administered by intraperitoneal injection. For each mouse, a single blood collection was performed by cardiac puncture at one of six different time points (t = 15, 30, 60, 90, 120, and 240 min). At the end of blood collection, mice were euthanized by cervical dislocation and organs (liver, lungs, kidneys, spleen, and brain) were harvested. Blood samples were allowed to clot by leaving undisturbed at room temperature for 1 h, and serum was separated by centrifuging at 2000×g for 10 min at 4 °C. The serum was carefully removed and stored on ice until further processing. Serum proteins were precipitated by incubating an aliquot of serum with a mixture of acetonitrile:acetone (80:20) containing 0.1 mg/mL quercetin (internal standard) at 4 °C overnight. The supernatant was separated by centrifuging at 14,000×g for 10 min at 4 °C. Excess solvent was evaporated using nitrogen flush and mixed with methanol and filtered. PZ-DHA-metabolites in the filtrate were identified using a UPLC-ESI–MS/MS (Waters Limited, Mississauga, ON, Canada). Organs were homogenized in PBS (1:5 w/v). Supernatants were collected by centrifugation at 14,000 × g for 15 min at 4 °C. Proteins were precipitated by incubating in acetonitrile:acetone (80:20) containing 0.1 mg/mL quercetin (internal standard) at 4 °C overnight. Supernatants were treated as explained above, and PZ-DHA and/or PZ-DHA-metabolites were identified.
A calibration curve (R^2 = 0.99) generated using a standard series of PZ-DHA concentrations prepared in mouse serum (spiked with 0.1 mg/mL quercetin) was used for the quantification of PZ-DHA. The average PZ-DHA concentrations were plotted against time. The maximum serum concentration of serum (Cmax) and the time to reach Cmax (Tmax) were read directly from the graph. The linear trapezoidal method was used to calculate the area under the curve (AUC) from t = 0 to infinity, the biological half-life of PZ-DHA (t1/2), determined using the plotted curve in Graphpad Prism software (version 5; La Jolla, CA, USA). The clearance following IP administration was determined by non-compartmental analysis using the relationship CL/F = D/AUC. The elimination rate constant λ was determined by linear regression of the elimination phase of the semi-log transformed concentration versus time curve. The t1/2 was calculated using the formula 0.693/λ and the volume of distribution Vd/F from the formula Vd/F = CL/(F*λ).

[2] = In vitro phase I metabolism with mouse hepatic microsomes and NADPH; type: in vitro ADME; conditions: liver microsomal enzymes of C57BL/6 male mice
Protocol: Figure 2 PZ-DHA undergoes phase I metabolism in the presence of freshly prepared mouse liver microsomes. PZ-DHA (1.1 µM) was incubated with 100 mM NADPH in the presence of mouse liver microsome for 1 h at 37 °C. Metabolites from PZ-DHA (A) hydrolysis, (B) and (C) hydroxylation, and (D) epoxidation were identified.
Mouse hepatic microsomes were freshly isolated from the livers of male C57BL/6 mice, and the entire extraction procedure was carried out at 4 °C. Mouse livers were minced and homogenized in KCl/sucrose phosphate buffer (0.154 M KCl, 0.25 M sucrose in 50 mM potassium phosphate buffer (K2HPO4/KH2PO4) (PPB), pH 7.5). Cell/tissue debris was separated out by centrifuging homogenized livers at 12,000×g for 22 min at 4 °C. The supernatant was collected and centrifuged at 100,000×g for 70 min at 4 °C. The pellet was gently rinsed using 50 mM PPB and resuspended in glycerol/phosphate buffer (20% glycerol (v/v), 80% 0.1 M PPB pH 7.5). The protein concentration was determined using a Bradford assay (R^2 = 1.00), and microsomes were stored at − 80 °C.
Potential in vitro phase I and phase II metabolites of PZ-DHA were detected by incubating PZ-DHA in the presence of freshly-prepared mouse hepatic microsome preparations. Phase I metabolites were determined by incubating 1.1 µM PZ-DHA with 100 mM NADPH in the presence of mouse hepatic microsomes for 1 h at 37 °C. Phase II methylation, glucuronidation, and sulphation of PZ-DHA was determined by incubating 1.1 µM PZ-DHA with 1 mM SAM, 2 mM UDPGA, and 0.5 mM PAPS, respectively, in the presence of freshly prepared mouse hepatic microsome for 1 h at 37 °C (Supplementary information Tables S1–S4). To assess the efficiency of the metabolic process, controls (no PZ-DHA control, no mouse hepatic microsome control and no co-factor control) were incubated in parallel to the test. Reactions were terminated by adding a mixture of 4 mL ice-cold acetonitrile:acetone (80:20) containing 0.05 mg/mL quercetin as the internal standard. Proteins were precipitated by incubating the reaction mixture at 4 °C overnight and separated by centrifuging at 14,000 × g for 15 min at 4 °C. Supernatants were concentrated under nitrogen flush, filtered and PZ-DHA and/or PZ-DHA metabolites were identified using a UPLC-ESI–MS/MS system (Waters Limited, Mississauga, ON, Canada).
PZ-DHA and/or PZ-DHA metabolites in malignant/non-malignant epithelial cell lysates, in vitro microsome enzyme reaction mixtures, and mouse serum aliquots were determined using UPLC-ESI–MS/MS instrument (Waters Limited, Mississauga, ON, Canada). All mass spectroscopic analyses were performed using mass scan (full-scan, identification of unknowns) and single ion monitoring (SIM; quantification of PZ, DHA, PZ-DHA, and quercetin) modes of a Waters H-class UPLC separations module coupled with a Micromass Quattro micro API MS/MS system and MassLynx V4.0 control software. An Allure biphenyl column (100 mm × 2.1 mm, 1.8 μm, Restek Pure Chromatography, Bellefonte, PA, USA) and a flow rate of 0.3 mL/min were employed. ESI- mode with a capillary voltage of 3000 V and a nebulizer gas (N2) temperature of 375 °C were used. A volume of 2 µL sample was injected.

[3] = test system: mammary carcinoma cells, including MDA-MB-231 and 4T1; design: method as in PMID 31473253; conditions: 20 µM for PZ-DHA; cited from earlier work

## CC/C=C\C/C=C\C/C=C\C/C=C\C/C=C\C/C=C\CCC(=O)OC[C@H]1O[C@@H](Oc2cc(O)cc(O)c2C(=O)CCc2ccc(O)cc2)[C@H](O)[C@@H](O)[C@@H]1O [PZ-DHA, phloridzin docosahexaenoate]
[1]
  Clearance (CL/F): 1.37 mL/min
  Volume of distribution (Vd/F): 56.5 mL
[1]; serum
  Biological half-life (T1/2): 28.7 min
  Cmax: 23.4 µM
[1]; 240 min
  serum detectability at the last measured time: remained detectable
[1]; female, Balb/c, mouse, ip, serum, read-out: Time to reach maximum serum concentration (Tmax) (converted)
  Tmax: 60 min
[1]; female, Balb/c, mouse, serum, ip, 100 mg/kg, serum, read-out: Biological half-life (T1/2)
  half-life: 28 min
[1]; female, Balb/c, mouse, serum, ip, 100 mg/kg, serum
  Cmax: 23.7 µM
[1]; female, Balb/c, mouse, serum, ip, 100 mg/kg, read-out: Volume of distribution (Vd/F)
  Vd/F: 0.057 L
[1]; female, Balb/c, mouse, serum, ip, t = 0 to infinity, read-out: The area under the curve (AUC) (converted)
  AUC: 36.6 µM·h
[1]; female, Balb/c, mouse, serum, ip, read-out: Elimination rate (λz) (converted)
  k el: 0.0004 s⁻¹
[1]; female, Balb/c, mouse, serum, ip, 15 min, read-out: serum concentration at the 1st measured time point
  concentration at 15 min: 0.9 ± 0.4 µM
[2]
  NADPH-dependent phase I bio-transformations identified: hydrolysis, hydroxylation, and epoxidation
[3]
  migration and invasion of mammary carcinoma cells: significantly inhibits
